Where a name gives a salt, the structure may show the parent alone.
What was measured:
[1] = tested on: 621-101 cells (TSC2-null, derived from a LAM patient); test: High-throughput screen of known bioactives in 621-101 cells, ATP levels ([…] GLO) as cell viability, with or without rapamycin pretreatment; format: cell-based, human; conditions: for Inducing cell death in TSC2-null LAM cells as single agent: used individually in the absence of rapamycin; for Normalized ATP levels drug alone (A) / Normalized ATP levels rapa + drug (B): 621-101 cells, 48-72 h; for Normalized ATP levels drug alone (A): DMSO pretreatment; for Normalized ATP levels rapa + drug (B): rapamycin (20 nM) pretreatment two hours plus drug; for ATP Fold Change (B):(A): ratio of rapa + drug to drug alone; for Synergy with rapamycin to bring about apoptosis in TSC2-null LAM cells: combination with rapamycin; for Synergize with rapamycin to cause cell death / decrease ATP levels (confirmed hits): Rapamycin 20 nM, screen compounds 20 uM
Method: Rapamycin was used at 20 nM and the screen compounds at 20 uM.
Cells are then pretreated with either Rapamycin (20 nM) or DMSO control in duplicate for two hours. Compound libraries are then added at the ICCB and allowed to incubate for 48-72 h. […] Treatment with staurosporine (1-2 uM) represents a positive control for cell death.
The inventors screened the Known Bioactives Collection at the ICCB which consists of approximately 7,000 compounds.

[2] = tested on: ELT3-V3 (TSC2-deficient) cells; test: Paroxetine treatment of ELT3-V3 (TSC2-deficient) versus ELT3-T3 (re-expressing TSC2) cells; format: cell-based, Eker rat; set-up: dose or concentration left out as unconfirmed; conditions: 24 hrs
Method: […] TSC2-deficient uterine leiomyoma cells derived from the Eker rat model of TSC, ELT3-V3 (TSC2-deficient) and ELT3-T3 (re-expressing TSC2) were treated with […] of DMSO or Paxil for 24 hrs.

621-101 cells = test: Follow-up imaging of cell death/proliferation in 621-101 cells; format: cell-based, human; conditions: FIG. 1
Method: 621-101 cells were pretreated for two hours with either DMSO (top two panels) or rapamycin (20 nM) bottom two panels) followed by the addition of fresh DMSO (top left), fresh rapamycin (bottom left), chelerythrine chloride (1 uM, top right), or rapamycin and chelerythrine chloride (bottom right). […] 4× magnification.

Aurora-A = target: T1, Aurora-A (Homo sapiens, UniProt O14965); conditions: cited from earlier work
T1 sequence (O14965 1-403): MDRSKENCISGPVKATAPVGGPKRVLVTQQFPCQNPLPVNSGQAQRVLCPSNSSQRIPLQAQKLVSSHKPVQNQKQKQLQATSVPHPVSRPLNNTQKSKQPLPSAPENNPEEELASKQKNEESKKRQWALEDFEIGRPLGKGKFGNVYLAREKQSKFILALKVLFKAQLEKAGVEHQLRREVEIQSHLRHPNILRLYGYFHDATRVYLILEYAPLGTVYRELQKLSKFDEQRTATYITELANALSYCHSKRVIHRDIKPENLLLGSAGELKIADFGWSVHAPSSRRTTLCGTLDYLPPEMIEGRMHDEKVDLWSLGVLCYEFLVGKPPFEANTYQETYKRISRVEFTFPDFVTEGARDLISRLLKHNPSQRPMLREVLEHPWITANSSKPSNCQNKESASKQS

FAK = FAK (Homo sapiens, UniProt Q05397); conditions: cited from earlier work
Sequence of FAK (Q05397 whole entry, species assumed): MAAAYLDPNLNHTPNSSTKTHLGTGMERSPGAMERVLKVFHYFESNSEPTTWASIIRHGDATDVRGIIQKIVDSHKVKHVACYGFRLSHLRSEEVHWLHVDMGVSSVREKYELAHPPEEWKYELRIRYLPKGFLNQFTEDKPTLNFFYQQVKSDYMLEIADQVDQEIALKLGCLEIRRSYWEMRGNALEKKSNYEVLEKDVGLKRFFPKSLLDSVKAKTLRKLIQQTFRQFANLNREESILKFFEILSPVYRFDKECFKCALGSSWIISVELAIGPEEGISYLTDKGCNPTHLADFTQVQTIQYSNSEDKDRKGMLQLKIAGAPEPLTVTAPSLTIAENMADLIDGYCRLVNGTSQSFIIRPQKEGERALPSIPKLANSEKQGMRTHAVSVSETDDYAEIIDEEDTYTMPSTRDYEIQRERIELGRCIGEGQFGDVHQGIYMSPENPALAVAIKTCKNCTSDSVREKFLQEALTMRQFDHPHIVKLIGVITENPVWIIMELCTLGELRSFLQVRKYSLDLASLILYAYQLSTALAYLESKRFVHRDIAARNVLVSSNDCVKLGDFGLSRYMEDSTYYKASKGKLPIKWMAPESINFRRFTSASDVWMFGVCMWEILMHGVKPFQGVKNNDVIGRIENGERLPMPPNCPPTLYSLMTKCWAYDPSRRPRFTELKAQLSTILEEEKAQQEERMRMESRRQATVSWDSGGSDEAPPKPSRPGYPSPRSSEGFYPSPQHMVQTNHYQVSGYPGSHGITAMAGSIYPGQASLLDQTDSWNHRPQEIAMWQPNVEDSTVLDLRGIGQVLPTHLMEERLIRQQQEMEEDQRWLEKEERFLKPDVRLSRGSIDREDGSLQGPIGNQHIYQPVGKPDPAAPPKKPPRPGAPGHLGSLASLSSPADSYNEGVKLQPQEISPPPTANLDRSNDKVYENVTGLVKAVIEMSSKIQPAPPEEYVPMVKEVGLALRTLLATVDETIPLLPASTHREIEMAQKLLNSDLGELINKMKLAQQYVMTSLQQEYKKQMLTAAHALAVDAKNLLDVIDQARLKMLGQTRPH

TrkA = TrkA (Homo sapiens, UniProt P04629); conditions: cited from earlier work
Sequence of TrkA (P04629 33-796, species assumed): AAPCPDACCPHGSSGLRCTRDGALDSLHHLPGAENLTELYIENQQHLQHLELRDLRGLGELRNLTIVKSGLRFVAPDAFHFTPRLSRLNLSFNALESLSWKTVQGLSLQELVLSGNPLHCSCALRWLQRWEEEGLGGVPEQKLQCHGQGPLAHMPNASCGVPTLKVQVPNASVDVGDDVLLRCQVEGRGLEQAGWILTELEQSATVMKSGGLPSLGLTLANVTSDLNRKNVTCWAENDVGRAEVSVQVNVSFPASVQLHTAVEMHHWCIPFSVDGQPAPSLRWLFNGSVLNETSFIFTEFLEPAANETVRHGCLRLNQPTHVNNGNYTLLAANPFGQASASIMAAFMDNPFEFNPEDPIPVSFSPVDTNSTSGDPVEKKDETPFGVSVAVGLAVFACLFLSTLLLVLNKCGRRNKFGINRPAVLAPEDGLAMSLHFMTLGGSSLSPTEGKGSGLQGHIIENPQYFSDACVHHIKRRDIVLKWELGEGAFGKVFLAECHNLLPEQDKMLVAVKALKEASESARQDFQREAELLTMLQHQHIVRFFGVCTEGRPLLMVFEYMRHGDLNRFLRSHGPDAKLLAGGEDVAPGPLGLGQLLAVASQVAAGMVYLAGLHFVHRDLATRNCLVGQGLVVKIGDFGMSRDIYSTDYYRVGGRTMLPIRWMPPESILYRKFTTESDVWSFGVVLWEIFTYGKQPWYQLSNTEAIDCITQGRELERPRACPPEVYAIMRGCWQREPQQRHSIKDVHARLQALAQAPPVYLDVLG

JAK2 kinase = JAK2 kinase (Homo sapiens, UniProt O60674); conditions: in vitro; cited from earlier work
Sequence of JAK2 kinase (O60674 whole entry): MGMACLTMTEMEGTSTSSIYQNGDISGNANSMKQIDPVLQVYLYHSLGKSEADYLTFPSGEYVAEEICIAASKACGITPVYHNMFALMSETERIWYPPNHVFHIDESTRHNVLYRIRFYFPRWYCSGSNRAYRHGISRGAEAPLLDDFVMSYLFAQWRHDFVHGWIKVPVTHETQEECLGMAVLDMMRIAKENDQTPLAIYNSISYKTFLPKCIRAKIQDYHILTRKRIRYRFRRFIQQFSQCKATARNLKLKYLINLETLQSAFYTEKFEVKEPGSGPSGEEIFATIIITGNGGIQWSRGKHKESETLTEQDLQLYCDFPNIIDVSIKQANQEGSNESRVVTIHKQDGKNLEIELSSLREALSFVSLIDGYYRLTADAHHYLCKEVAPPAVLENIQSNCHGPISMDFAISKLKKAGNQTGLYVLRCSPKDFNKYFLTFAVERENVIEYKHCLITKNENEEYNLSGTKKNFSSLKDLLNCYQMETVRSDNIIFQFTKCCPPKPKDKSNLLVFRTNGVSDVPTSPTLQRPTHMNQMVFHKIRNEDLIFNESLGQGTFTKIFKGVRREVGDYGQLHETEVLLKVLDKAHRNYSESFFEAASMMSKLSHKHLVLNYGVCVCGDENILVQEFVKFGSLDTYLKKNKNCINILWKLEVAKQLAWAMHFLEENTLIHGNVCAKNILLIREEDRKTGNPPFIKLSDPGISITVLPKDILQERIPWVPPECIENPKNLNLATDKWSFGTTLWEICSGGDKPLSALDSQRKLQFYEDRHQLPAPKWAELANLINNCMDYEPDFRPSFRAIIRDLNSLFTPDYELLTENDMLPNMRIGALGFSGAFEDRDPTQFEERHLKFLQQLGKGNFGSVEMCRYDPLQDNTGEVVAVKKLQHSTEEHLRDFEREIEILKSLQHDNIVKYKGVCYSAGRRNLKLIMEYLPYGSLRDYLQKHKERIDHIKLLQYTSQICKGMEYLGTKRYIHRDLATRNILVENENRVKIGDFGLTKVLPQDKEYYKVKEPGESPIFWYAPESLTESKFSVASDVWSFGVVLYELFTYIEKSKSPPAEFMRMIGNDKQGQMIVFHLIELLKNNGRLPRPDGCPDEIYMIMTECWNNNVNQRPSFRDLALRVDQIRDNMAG

In the case of `CNCCC(Oc1ccc(C(F)(F)F)cc1)c1ccccc1` (racemic) [fluoxetine, (RS)-N-methyl-3-phenyl-3-[4-(trifluoromethyl)phenoxy]propan-1-amine], the “Inducing cell death in TSC2-null LAM cells as single agent” value (“Inducing cell death” below) [1] is reported as “surprisingly effective at inducing cell death”.
In the case of `CCC1(c2ccc(N)cc2)CCC(=O)NC1=O` (centres unmarked) [Aminoglutethimide], the “Normalized ATP levels drug alone (A)” value [1] is reported as 0.474, the “Normalized ATP levels rapa + drug (B)” value [1] is reported as 1.264 and the “ATP Fold Change (B):(A)” value [1] is reported as 2.7 (Anticonvulsant). For the same molecule, the “Inducing cell death” value [1] was “surprisingly effective at inducing cell death”.
With `COC(=O)C1=C(C)NC(C)=C(C(=O)OCCN(C)Cc2ccccc2)C1c1cccc([N+](=O)[O-])c1` (centres unmarked) [nicardipine] the “Synergy with rapamycin to bring about apoptosis in TSC2-null LAM cells” value (“Synergy with rapamycin” for short) [1] was “worked synergistically with rapamycin”.
In the case of `Fc1ccc([C@@H]2CCNC[C@H]2COc2ccc3c(c2)OCO3)cc1` [paroxetine, (3S,4R)-3-[(2H-1,3-benzodioxol-5-yloxy)methyl]-4-(4-fluorophenyl)piperidine], the “Apoptosis of ELT3-V3 (TSC2-deficient) cells” value [2] is reported as “susceptible to Paxil induced apoptosis”, the “Selectivity for TSC2-deficient ELT3-V3 versus ELT3-T3 cells” value [2] is reported as “selective to Tsc2-null cells” and the “Inducing cell death” value [1] is reported as “surprisingly effective at inducing cell death”.
In the case of `CCC1(c2ccccc2)NC(=O)N(C)C1=O` (centres unmarked) [Mephenytoin], the “Normalized ATP levels drug alone (A)” value [1] is reported as 0.425, the “Normalized ATP levels rapa + drug (B)” value [1] is reported as 1.17 and the “ATP Fold Change (B):(A)” value [1] is reported as 2.8 (Anticonvulsant). For the same molecule, the “Inducing cell death” value [1] was “surprisingly effective at inducing cell death”.
In the case of `OCc1cc(C(O)CNCCCCCCOCCCCc2ccccc2)ccc1O` (centres unmarked) [Salmeterol], the “Normalized ATP levels drug alone (A)” value [1] is reported as 0.184, the “Normalized ATP levels rapa + drug (B)” value [1] is reported as 0.456 and the “ATP Fold Change (B):(A)” value [1] is reported as 2.5 (β blocker). For the same molecule, the “Inducing cell death” value [1] was “surprisingly effective at inducing cell death”.
With `OCCN1CCN(CCCN2c3ccccc3Sc3ccc(C(F)(F)F)cc32)CC1` [Fluphenazine 2HCl] the “Normalized ATP levels drug alone (A)” value [1] was 0.069, the “Normalized ATP levels rapa + drug (B)” value [1] was 0.191 and the “ATP Fold Change (B):(A)” value [1] was 2.8 (Anti-psychotic). The “Inducing cell death” value [1] was “surprisingly effective at inducing cell death”.
In the case of `CN1CCN(CCCN2c3ccccc3Sc3ccc(C(F)(F)F)cc32)CC1` [trifluoperazine, 10-[3-(4-methylpiperazin-l-yl)propyl]-2-(trifluoromethyl)-10H-phenothiazine], the “Inducing cell death” value [1] is reported as “surprisingly effective at inducing cell death”.
For `CO[C@@H](C(=O)N1Cc2[nH]nc(NC(=O)c3ccc(N4CCN(C)CC4)cc3)c2C1)c1ccccc1` [danusertib (PHA-739358)], the “Synergize with rapamycin to cause cell death / decrease ATP levels (confirmed hits)” value [1] was “confirmed as hits” and the “Synergy with rapamycin” value [1] was “worked synergistically with rapamycin”.
In the case of “(7R)-7-(Acetyloxy)-4-hydroxy-N,N,N-trimethyl-3,5,9-trioxa-4-phosphapentacosan-1-aminium-4-oxide [PAF C16]”, the “Synergy with rapamycin” value [1] is reported as “worked synergistically with rapamycin”.
With `C[C@H](CCC(=O)O)C[C@H](C)C[C@H](C)C(=O)/C=C(\O)[C@H](C)C[C@H](C)C/C=C/[C@@H](C)[C@@H](O)[C@@H](C)[C@@H](O)C[C@@H]1CC[C@@](C)([C@H]2CC[C@@](C)([C@@H](C)O)O2)O1` [ionomycin] the “Synergy with rapamycin” value [1] was “worked synergistically with rapamycin”.
For `O=C(Nc1cccc(Nc2ncc(Br)c(NCCc3cnc[nH]3)n2)c1)N1CCCC1` [BX912, N-(3-(4-(2-(1H-imidazol-5-yl)ethylamino)-5-bromopyrimidin-2-ylamino)phenyl)pyrrolidine-1-carboxamide], the “Synergy with rapamycin” value [1] was “worked synergistically with rapamycin”.
For `CN(C)CCOc1ccc(-c2nc(-c3ccncc3)c(-c3ccc4c(c3)CC/C4=N\O)[nH]2)cc1` [SB-590885], the “Synergize with rapamycin to cause cell death / decrease ATP levels (confirmed hits)” value [1] was “confirmed as hits” and the “Synergy with rapamycin” value [1] was “worked synergistically with rapamycin”.
In the case of `CC(C)NCC(O)COc1ccc(CCOCC2CC2)cc1` (centres unmarked) [Betaxolol HCl], the “Normalized ATP levels drug alone (A)” value [1] is reported as 0.487, the “Normalized ATP levels rapa + drug (B)” value [1] is reported as 1.27 and the “ATP Fold Change (B):(A)” value [1] is reported as 2.6 (β blocker). For the same molecule, the “Inducing cell death” value [1] was “surprisingly effective at inducing cell death”.
For `C[CH2][Hg][S]c1ccccc1C(=O)[O-].[Na+]` [Thimerosal, Ethyl(2-mercaptobenzoato-(2-)-O,S) mercurate(1-) sodium], the “Synergy with rapamycin” value [1] was “worked synergistically with rapamycin”.
With `CO[C@H]1C[C@@H]2CC[C@@H](C)[C@@](O)(O2)C(=O)C(=O)N2CCCC[C@H]2C(=O)O[C@H]([C@H](C)C[C@@H]2CC[C@@H](O)[C@H](OC)C2)CC(=O)[C@H](C)/C=C(\C)[C@@H](O)[C@@H](OC)C(=O)[C@H](C)C[C@H](C)/C=C/C=C/C=C/1C` [rapamycin] the “Cell death in 621-101 cells” value (621-101 cells) was “does not induce cell death”.
In the case of `CNCCC=C1c2ccccc2CCc2ccccc21` [nortriptyline, 3-(10,11-dihydro-5H-dibenzo[a,d]cyclohepten-5-ylidene)-N-methyl-1-propanamine], the “Inducing cell death” value [1] is reported as “surprisingly effective at inducing cell death”.
For `NC[C@@H]1O[C@H](C23CC4CC(CC(C4)C2)C3)Cc2c1ccc(O)c2O` [A-77636], the “Inducing cell death” value [1] was “surprisingly effective at inducing cell death”.
In the case of `OCCN1CCN(CC/C=C2/c3ccccc3Sc3ccc(C(F)(F)F)cc32)CC1` [Flupenthixol 2HCl], the “Normalized ATP levels drug alone (A)” value [1] is reported as 0.273, the “Normalized ATP levels rapa + drug (B)” value [1] is reported as 0.776 and the “ATP Fold Change (B):(A)” value [1] is reported as 2.8 (Anti-psychotic). The “Inducing cell death” value [1] was “surprisingly effective at inducing cell death”.
For `Cc1cc(Nc2nc(N[C@@H](C)c3ccc(F)cc3)c(C#N)cc2F)n[nH]1` [AZ-960], the IC50 (Aurora-A) is listed as ~0.1 µM, the IC50 (FAK) is listed as ~0.1 µM and the IC50 (TrkA) is listed as ~0.1 µM. For the same molecule, the “Synergize with rapamycin to cause cell death / decrease ATP levels (confirmed hits)” value [1] was “confirmed as hits”, the “Synergy with rapamycin” value [1] was “worked synergistically with rapamycin” and the Ki (JAK2 kinase) was 0.00045 µM.
In the case of `C/N=c1\nc(-c2ccccc2)n(-c2ccccc2)s1` [SCH-202676 hydrobromide, (N-(2,3-diphenyl-1,2,4-thiadiazol-5-(2H)-ylidene)methanamine) hydrobromide], the “Synergize with rapamycin to cause cell death / decrease ATP levels (confirmed hits)” value [1] is reported as “confirmed as hits” and the “Synergy with rapamycin” value [1] is reported as “worked synergistically with rapamycin”.
With `COc1ccc2c(c1)CC[C@@H]1[C@@H]2CC[C@]2(C)[C@@H](NCCCCCCN3C(=O)CCC3=O)CC[C@@H]12` [U-73343, 1-[6-[((17β)-3-Methoxyestra-1,3,5[10]-trien-17-yl)amino]hexyl]-2,5-pyrrolidinedione] the “Synergy with rapamycin” value [1] was “worked synergistically with rapamycin”.

From patent US20150328193A1, “TREATMENT OF MTOR HYPERACTIVE RELATED DISEASES AND DISORDERS” (THE BRIGHAM AND WOMEN'S HOSPITAL, INC., priority 2012, published 2015)
